Where “and” joins values, the source holds several entries; their conditions need not be identical. Equal values may be shown once.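 Interpolation was linear, between the two tested concentrations surrounding the appropriate level; five concentrations were tested over 48 hours in 96-well plates. GI50: concentration for 50% inhibition of growth. TGI: concentration producing complete growth inhibition.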
Experiments:
Assay in all cases: NCI tumour cell line growth inhibition, 48 h
ACHN renal = tested on: ACHN renal
CCRF-CEM leukemia = tested on: CCRF-CEM leukemia
MALME-3M melanoma = tested on: MALME-3M melanoma
NCI-H522 lung = tested on: NCI-H522 lung
OVCAR-5 ovarian = tested on: OVCAR-5 ovarian
OVCAR-8 ovarian = tested on: OVCAR-8 ovarian
SNB-75 CNS = tested on: SNB-75 CNS
U251 CNS = tested on: U251 CNS
DU-145 prostate = tested on: DU-145 prostate
MDA-MB-435 = tested on: MDA-MB-435

SMILES	TGI (ACHN renal)	TGI (CCRF-CEM leukemia) [µM]	TGI (MALME-3M melanoma) [µM]	TGI (NCI-H522 lung)	TGI (OVCAR-5 ovarian)	TGI (OVCAR-8 ovarian)	TGI (SNB-75 CNS)	TGI (U251 CNS) [µM]	GI50 (ACHN renal) [µM]	GI50 (CCRF-CEM leukemia) [µM]	GI50 (DU-145 prostate) [µM]	TGI (DU-145 prostate) [µM]	GI50 (MDA-MB-435) [µM]	TGI (MDA-MB-435) [µM]	GI50 (NCI-H522 lung) [nM]	GI50 (OVCAR-5 ovarian) [µM]	GI50 (OVCAR-8 ovarian) [µM]	GI50 (SNB-75 CNS) [µM]	GI50 (U251 CNS) [µM]	GI50 (MALME-3M melanoma) [µM]
CC1=NN(C(=O)CC(=O)N(C(=O)c2ccccc2Cl)c2ccc(C)cc2)C(=O)C1N=Nc1ccc([N+](=O)[O-])cc1 (stereo not given)	> 100 µM	> 70.7	> 100	> 100 µM	> 100 µM	78.1 µM	> 72 µM	48.9												
Nc1nc(CCl)nc(Nc2ccccc2)n1	66.1 µM	4.58	33.7	3.27 µM	43.4 µM	> 100 µM	50.3 µM	15.6												
COC(=O)/C(C)=C/[N+](=O)[O-]	35.5 µM	6.48	31.4		35.4 µM	63.3 µM	30.1 µM	32.5												
O=C(Nc1ccc(-c2ccccc2)cc1)C1CCN(S(=O)(=O)c2ccccc2Cl)CC1	57 µM	> 100		> 100 µM	> 100 µM	57.1 µM	> 100 µM	67.3	21.9	74.2	27.9	> 100	> 100	> 100	22400	50	22.7	36.5	18.8	
COc1ccc(C2c3cc(OC)c(OC)cc3C(Cc3ccc([N+](=O)[O-])cc3)C2c2ccc([N+](=O)[O-])cc2)cc1OC (stereo not given)	> 100 µM	> 100	> 100	> 100 µM	> 100 µM	> 100 µM	> 100 µM	> 100												
COC(=O)/C(C=O)=C/Sc1ccccc1	> 100 µM	> 100		24 µM	93.8 µM	31.8 µM	50.9 µM	42.2												
C1C[OH+]CCNCC[OH+]CC[OH+]CCN1.[Cl-].[Pt+4]	> 100 µM	> 100	> 100	> 100 µM		> 100 µM	> 100 µM	> 100	> 100	51.4					> 100000		> 100	> 100	> 100	> 100
COc1ccc2c(O)cc3c(c2c1)[C@H](CCl)CN3C(=O)c1cc2cc(NC(=O)CCN3CCOCC3)ccc2[se]1	< 0.001 µM		< 0.001	0.0298 µM	1.29 µM	0.0843 µM	0.00156 µM	0.385	< 0.001	< 0.001	< 0.001	0.137			< 1	< 0.001	< 0.001	< 0.001	< 0.001	< 0.001
N.N.N.N.[Cl-].[Co+3].[N-]=[N+]=[N-].[N-]=[N+]=[N-]	> 100 µM	> 100	> 100	> 100 µM	> 100 µM	> 100 µM	> 100 µM	> 100	50.5	91.6					> 100000	> 100	> 100	> 100	> 100	57.9
C=C1C(=O)O[C@H]2/C=C(/C)C3=CC(=O)[C@@](C)(C[C@@H](OC(=O)/C(C)=C\C)C12)O3 (stereo not given in full)	0.958 µM			0.605 µM	6.19 µM	3.94 µM	23.9 µM	9.48				8.99		6.02						
CC12CCCCC1(C)C2Sc1ccccc1 (stereo not given)	> 100 µM	44.4	> 100	> 69.3 µM	> 100 µM	> 100 µM	> 100 µM	> 67.2												
C[C@@]12CCCc3coc(c31)C(=O)c1cc3c(cc12)C(=O)C=CC3=O	> 1 µM and 25.4 µM	7.74	> 1	> 1 µM and 19.5 µM	> 1 µM and 36.4 µM	> 1 µM and 29.1 µM	> 1 µM and 38.2 µM	> 100	> 1						> 1000	> 1	> 1	> 1	> 1	
Oc1cn(-c2ccc(Cl)cc2)nc1-c1n[nH]c(=S)n1C1CCCCC1		> 100	> 100	> 100 µM	> 100 µM	16.8 µM	0.702 µM	> 100		0.252	0.502	> 33.9			373	3.05	0.46	0.165	0.467	
Cc1c(C2=C(Br)C(=O)N(C)C2=O)c(=O)n(C)c(=O)n1C	94.3 µM	48		29.5 µM	> 100 µM	> 100 µM	> 100 µM	> 100				80.9		58.6						
CC1(C)O/C(=C\c2ccccc2)C(=O)/C(=C/c2ccccc2)O1	> 100 µM	44.4	> 100	22.5 µM	60.8 µM	> 100 µM	> 100 µM	> 100												
Nc1ccn(C2(CO)C=C(CO)C(O)C2O)c(=O)n1 (stereo not given)	> 25.8 µM		> 25.8	> 25.8 µM		> 25.8 µM	> 25.8 µM	> 25.8												
CCOC(=N)CC(=O)Nc1cccc(C)c1C	> 100 µM	> 100	> 100	> 100 µM	> 100 µM	> 100 µM	> 100 µM	> 100												
O=C(Nc1ccc(Br)cc1)c1ccc(Cl)c(Cl)c1	> 28.6 µM	> 100		16.2 µM	> 100 µM	> 100 µM	> 31 µM	> 100	2.83	4.81	3.86	> 100			2750	3.9	4.2	3.2	3.27	
